Assay results taken from paper PMC6482291, “Anticonvulsant Activity of Pterostilbene in Zebrafish and Mouse Acute Seizure Tests” (Neurochemical Research, 2019).

How the values were obtained:
zebrafish larvae = assay: Toxicological assessment (maximum tolerated concentration) in zebrafish larvae; format: in vivo, Danio rerio; conditions: 4 dpf larvae, scored after 2 and 18 h of exposure; highest concentration without death or signs of toxicity
Experimental: Maximum tolerated concentration (MTC) was evaluated prior to further experiments. Briefly, 4 dpf zebrafish larvae (n = 12/group) were incubated with a range of PTE doses at 28.5 °C, for 18 h. The following parameters were scored after 2 and 18 h of exposure: touch response, posture, edema, morphology, signs of necrosis, swim bladder and heartbeat.

[1] = tested on: PTZ-induced seizures in mice; assay: Timed iv PTZ seizure threshold test in mice; format: in vivo; conditions: for threshold for the first myoclonic twitch vs negative control: p < 0.001
Experimental: Each mice was placed in the cylindrical restrainer and the needle (27G, 3/4 in., Sterican®, B. Braun Melsungen AG, Melsungen, Germany) was injected into the lateral tail vein. The needle was attached by the polyethylene drain (PE20RW, Plastic One Inc. Roanoke, VA, USA) with the syringe containing 1% solution of PTZ (Sigma–Aldrich, St. Louis, MO, USA) in water and the syringe was located in the infuse pomp (model Physio 22, Hugo Sachs Elektronik–Harvard Apparatus GmbH, March-Hugstetten, Germany). The correct placement of the needle in the vein was confirmed based on the presence of the blood in the drain and the needle was protected against displacement by a peace of adhesive tape. Following injection, mice were took out from the restrainer and placed in the Plexiglas box for observation. The PTZ solution was infused into the vein at a constant rate of 0.2 ml/min. The time intervals from the start of infusion of PTZ solution to the beginning of three kinds of seizures, i.e., the first myoclonic twitch, generalized clonus with loss of the righting reflex and forelimb tonic extension, were noted. Infusion of PTZ solution was stopped immediately after onset of the tonic seizures, which usually were lethal. If animal survived the test, it was euthanized immediately. The threshold dose of PTZ (in mg/kg body weight) for each kind of seizures was calculated according to the following formula: PTZmg/kg=infusion durations×infusion rateml/s×PTZ concentrationmg/ml/weightkg
Experimental groups consisted of 9–13 animals. The data obtained in the iv PTZ test are presented as the threshold dose of PTZ (in mg/kg) + standard error of the mean (SEM) needed to elicit the respective kind of seizures. The data were analyzed by one-way ANOVA followed by the Tukey’s multiple comparison test. Statistical significance was noted when p values were equal or lower than 0.05.

[2] = tested on: maximal electroshock seizures in mice; assay: Maximal electroshock seizure threshold (MEST) test; format: in vivo; conditions: for CS50 (seizure threshold): 30 min before test, 95% confidence limits in brackets
Text: Seizures in the MEST test were evoked by applying a sine-wave alternating current (maximal output voltage 500 V, 50 Hz for 0.2 s) generated by constant current stimulator (Rodent Shocker, Type 221, Hugo Sachs Elektronik, Freiburg, Germany). The stimulation was delivered by saline-socked transcorneal electrodes. Before the stimulation 1% solution of tetracaine hydrochloride was applied into animals’ eyes for local anesthesia. During the stimulation animals were restrained manually and immediately after the stimulation they were placed in the Plexiglas box for observation. The endpoint evaluated in the test was the maximal electroconvulsion which was defined as extension of the hindlimbs above a 90° angle to the torso of animal.
The threshold for maximal electroshock was determined according to the up-and-down method described by Kimball et al.. The mice in the experimental group were subjected to the stimuli with different current intensities (range of 8–30 mA) which changes in 0.06-log steps. If stimulated mouse respond with seizures, the next mouse in the group was stimulated with current of intensity 0.06-log step lower than the previous one. […] Groups of 20 stimulated animals were used to calculate the threshold current strength (CS50 in mA; the current strength which induces tonic hindlimb extension in 50% of the tested animals) with SEM.
CS50 values were compared with one-way ANOVA followed by the Tukey’s multiple comparison test.

mice = assay: Grip-strength test; format: in vivo; conditions: for Neuromuscular strength: 30 min before test
Experimental: The acute effect of PTE on the skeletal muscles strength in mice was determined in the grip strength test. The apparatus for this test (BioSeb, Chaville, France) consisted of a steel wire grid (8 × 8 cm) connected to an isometric force transducer. Each mouse was lifted by tail and allowed to grasp the grid with its forepaws and then it was gently pulled backward until its released the grid. The maximal force in newtons (N) exerted by mouse before leaving the grid was recorded. The mean of three consecutive measurements for each animal was calculated and normalized to body weight (mN/g).
Experimental groups consisted of 12 animals. Results obtained in the grip-strength test were compared using one-way ANOVA followed by the Tukey’s post-hoc multiple comparison test.

## COc1cc(/C=C/c2ccc(O)cc2)cc(OC)c1 [PTE, trans-3,5-dimethoxy-4′-hydroxy-trans-stilbene]
Zebrafish larvae
  Maximum tolerated concentration (MTC): 10 µM
[1]; PTE 100 mg/kg ip, 30 min before test
  threshold for the first myoclonic twitch vs negative control: Statistically significant increases
[1]; PTE 200 mg/kg ip, 30 min before test
  threshold for the first myoclonic twitch vs negative control: Statistically significant increases
[1]; PTE 200 mg/kg ip, 30 min before test, p < 0.01
  increase of threshold for generalized clonic seizures vs negative control: over 45%
[1]; PTE 50 to 200 mg/kg ip, 30 min before test
  threshold for tonic forelimb extension vs negative control: did not significantly affect
[1]; iv PTZ test, data not shown
  time of highest anticonvulsant activity after ip administration (time-course effect): 30 min
[2]; PTE 100 mg/kg ip
  CS50 (seizure threshold): 11.40 (10.93–11.87) mA
[2]; PTE 200 mg/kg ip
  CS50 (seizure threshold): 16.22 (14.80–17.78) mA
[2]; PTE 200 mg/kg ip, p < 0.001
  increase of seizure threshold vs negative control: over 70%
[2]; PTE 200 mg/kg ip, p < 0.05
  seizure threshold higher than in VPA-treated group (150 mg/kg): 15%
mice; PTE 50 mg/kg ip
  Neuromuscular strength: 30.34 ± 1.16 mN/g
mice; PTE 100 mg/kg ip
  Neuromuscular strength: 29.14 ± 0.95 mN/g
mice; PTE 200 mg/kg ip
  Neuromuscular strength: 28.76 ± 2.16 mN/g
mice; PTE 400 mg/kg ip
  Neuromuscular strength: 30.39 ± 2.17 mN/g
mice; PTE 600 mg/kg ip
  Neuromuscular strength: 30.19 ± 0.97 mN/g
mice; PTE 800 mg/kg ip
  Neuromuscular strength: 31.12 ± 1.44 mN/g
mice; PTE 50 to 800 mg/kg ip
  influence on muscular strength: did not significantly influence
